Legend:
HDQ-P1 [1] = test: normalised viability (% of control), CellTiter-Blue; higher = more viable cells (about 100 = DMSO control); conditions: 30 nM; incubation time: 72 h
In short: (§1)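 The reported figure is normalised viability at a single listed concentration of the series. Breast cancer cell lines (20 µl suspension) went onto 384-well plates holding compound in 5 µl medium for 72 h. CellTiter-Blue (2.5 µl, 2 h, 37 °C) was read by fluorescence at 560/590 nm, and each plate was scaled to vehicle at 100 and a positive kill control at 0.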

CAL-120 [2] = test: as above; conditions: 1000 nM; incubation time: 72 h
In short: as §1

DU-4475 [3] = test: drug sensitivity score (DSS), CellTox Green (DSS (AUC-based score)); higher = stronger drug effect (viability inhibition or cytotoxicity); extreme values may be limits of the assay; conditions: incubation time: 72 h
In short: (§2)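 Breast cancer cells were seeded into 384-well plates containing compound at 5 concentrations in 10-fold steps over a compound-specific 10,000-fold range and incubated 72 h. After CellTox Green and CellTiter-Glo readings, each plate was normalised to 0.1 % DMSO and a positive kill control. The drug sensitivity score rests on the area under the fitted dose-response curve.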

CAL-148 [4] = test: as above; conditions: incubation time: 72 h
In short: as §2

MDA-MB-453 [5] = test: normalised viability (% of control), CellTiter-Blue; higher = more viable cells (100 = DMSO, 0 = benzethonium chloride kill control); conditions: 1 nM; incubation time: 72 h
Experimental: (§3)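 DSRT, CellTiter-Blue viability, 72 h incubation. Signal is normalised to DMSO and benzethonium chloride controls. Value is the normalised response at dose 1.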

CAL-85-1 [6] = test: as above; conditions: 1 nM; incubation time: 72 h
Experimental: as §3

MFM-223 = test: as above; conditions: 1 nM; incubation time: 72 h
Experimental: as §3

DU-4475 [7] = test: as above; conditions: 1 nM; incubation time: 72 h
Experimental: as §3

CAL-148 [8] = test: as above; conditions: 1 nM; incubation time: 72 h
Experimental: as §3

HCC1143 = test: as above; conditions: 1 nM; incubation time: 72 h
Experimental: as §3

CAL-51 [9] = test: as above; conditions: 1 nM; incubation time: 72 h
Experimental: as §3

BT-549 = test: as above; conditions: 1 nM; incubation time: 72 h
Experimental: as §3

HDQ-P1 [10] = test: as above; conditions: 1 nM; incubation time: 72 h
Experimental: as §3

MDA-MB-231 = test: as above; conditions: 1 nM; incubation time: 72 h
Experimental: as §3

HCC1937 = test: as above; conditions: 1 nM; incubation time: 72 h
Experimental: as §3

BT-474 = test: as above; conditions: 1 nM; incubation time: 72 h
Experimental: as §3

SK-BR-3 = test: as above; conditions: 1 nM; incubation time: 72 h
Experimental: as §3

CAL-120 [11] = test: as above; conditions: 1 nM; incubation time: 72 h
Experimental: as §3

MDA-MB-436 = test: as above; conditions: 1 nM; incubation time: 72 h
Experimental: as §3

HCC1599 = test: as above; conditions: 1 nM; incubation time: 72 h
Experimental: as §3

Hs578T = test: as above; conditions: 1 nM; incubation time: 72 h
Experimental: as §3

MDA-MB-468 = test: as above; conditions: 1 nM; incubation time: 72 h
Experimental: as §3

MDA-MB-453 [12] = test: normalised viability (% of control), CellTiter-Blue; higher = more viable cells (about 100 = DMSO control); conditions: 10000 nM; incubation time: 72 h
Experimental: (§4)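 DSRT, CellTiter-Blue viability, 72 h incubation. Signal is normalised to DMSO and benzethonium chloride controls. Value is the normalised response at dose 9.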

CAL-85-1 [13] = test: as above; conditions: 10000 nM; incubation time: 72 h
Experimental: as §4

DU-4475 [14] = test: as above; conditions: 10000 nM; incubation time: 72 h
Experimental: as §4

CAL-148 [15] = test: as above; conditions: 10000 nM; incubation time: 72 h
Experimental: as §4

CAL-51 [16] = test: as above; conditions: 10000 nM; incubation time: 72 h
Experimental: as §4

HDQ-P1 [17] = test: as above; conditions: 10000 nM; incubation time: 72 h
Experimental: as §4

Row | Structure (SMILES) | normalised viability (HDQ-P1 [1]) | normalised viability (CAL-120 [2]) | drug sensitivity score (DU-4475 [3]) | drug sensitivity score (CAL-148 [4]) | normalised viability (MDA-MB-453 [5]) | normalised viability (CAL-85-1 [6]) | normalised viability (MFM-223) | normalised viability (DU-4475 [7]) | normalised viability (CAL-148 [8]) | normalised viability (HCC1143) | normalised viability (CAL-51 [9]) | normalised viability (BT-549) | normalised viability (HDQ-P1 [10]) | normalised viability (MDA-MB-231) | normalised viability (HCC1937) | normalised viability (BT-474) | normalised viability (SK-BR-3) | normalised viability (CAL-120 [11]) | normalised viability (MDA-MB-436) | normalised viability (HCC1599) | normalised viability (Hs578T) | normalised viability (MDA-MB-468) | normalised viability (MDA-MB-453 [12]) | normalised viability (CAL-85-1 [13]) | normalised viability (DU-4475 [14]) | normalised viability (CAL-148 [15]) | normalised viability (CAL-51 [16]) | normalised viability (HDQ-P1 [17])
1 | COc1ccc(-c2ccc3c(N4CCOC[C@@H]4C)nc(N4CCOC[C@@H]4C)nc3n2)cc1CO [AZD8055] | 53.1% | 13.9% | 0 | 14.2 | 89.3% | 96.2% | 93% | 103% | 94.6% | 98.2% | 94% | 106% | 104% | 98.3% | 102% | 103% | 103% | 93.2% | 113% | 97.8% | 105% | 109% | 12.2% | 18.8% | 8.6% | 3.64% | 6.13% | 22.7%
2 | CNNCc1ccc(C(=O)NC(C)C)cc1 [Procarbazine] | 103% | 99% | 0 | 0 | 110% | 92.4% | 102% | 110% | 108% | 103% | 100% | 113% | 120% | 112% | 78.9% | 92.5% | 106% | 97% | 99.3% | 84.6% | 107% | 104% | 110% | 85.1% | 85% | 97% | 102% | 124%

Source: the supplement of paper PMC4862054
